The target in data set [1] is T1, 5α-reductase type 1 isozyme (Rattus norvegicus, UniProt P24008).
T1 sequence (P24008 1-259): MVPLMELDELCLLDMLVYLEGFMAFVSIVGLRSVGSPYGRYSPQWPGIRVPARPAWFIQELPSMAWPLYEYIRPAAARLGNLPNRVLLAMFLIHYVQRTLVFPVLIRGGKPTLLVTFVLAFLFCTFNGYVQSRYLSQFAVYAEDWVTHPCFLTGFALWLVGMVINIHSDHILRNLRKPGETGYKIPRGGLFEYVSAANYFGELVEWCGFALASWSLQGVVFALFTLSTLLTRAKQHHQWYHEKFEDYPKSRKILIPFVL
The experiment in a line: Enzyme inhibition test, 5α-reductase type 1 (pH 6.6). It is filed as biochemical. Here is the method:
(§1) Female rats were sacrificed and liver were taken within 5 min. All the following steps were performed at 0–4 °C. 1 g liver was cut into 3 mm pieces and added to 3 times volume of PBS. The tissue was homogenized and centrifuged at 10,000 g for 30 min. The supernatant was collected and centrifuged repeatedly at 100,000 for 1 h. The pellet obtained was resuspended in phosphate buffer (contained 30% glycerol, 1:3 v/v) and stored at −70 °C. The incubation mixture contained 50 µL enzyme solution, 6 µL NADPH (80 µM), 6 µL T (20 µM), and 108 µL buffer with or without test compound. The negative control contained 50 µL enzyme solution, 6 µL NADPH (80 µM) and 114 µL buffer. The incubation was carried out for 30 min at 37 °C. The fluorescence decay rate was tested in 10 min at 37 °C.
(§2) The inhibitory activities of the synthesized compounds were then assessed towards the 5α-reductase 1 and 2 isozymes, respectively. Finasteride was used as positive control.

For data set [2], the target named is T2, 5α-reductase type 2 isozyme (Rattus norvegicus, UniProt P31214).
T2 sequence (P31214 1-254): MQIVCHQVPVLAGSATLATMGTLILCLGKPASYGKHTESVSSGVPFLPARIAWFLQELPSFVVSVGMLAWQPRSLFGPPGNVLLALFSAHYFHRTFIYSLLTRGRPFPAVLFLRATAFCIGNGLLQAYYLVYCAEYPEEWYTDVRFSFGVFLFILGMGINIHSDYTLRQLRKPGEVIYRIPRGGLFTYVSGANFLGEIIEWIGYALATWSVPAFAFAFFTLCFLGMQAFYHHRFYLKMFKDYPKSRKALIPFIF
The data set can be described thus: Enzyme inhibition test, 5α-reductase type 2 (pH 5.5). The format is biochemical. Here is the method:
as §1, §2

In the next data set the test system is 22RV1 cells. The data set can be described thus: MTT anti-proliferation assay, T-stimulated 22RV1. It is filed as cell-based, Human. Conditions: for Effect on cell viability of T-treated 22RV1 cells: different concentrations of compound with 0.1 μM T, Figure 3. The protocol:
Human prostate carcinoma 22RV1 (CRL-2505, ATCC) and PC-3 (CRL-1435, ATCC) cells were cultured in RPMI-1640 medium (Invitrogen), supplemented with 10% (v/v) foetal calf serum (FCS) (Invitrogen), 1% (v/v), penicillin and streptomycin (Invitrogen) at 37 °C with 5% CO2 in a humidified atmosphere. Fresh medium was given every second day and on the day before the experiments were done. Cells were passaged at preconfluent densities, using a solution containing 0.05% trypsin.
The anti-cancer activity in vitro was measured using the MTT assay. Exponentially growing cells were harvested and plated in 96-well plates at a concentration of 1 × 10^4 cells/well. After 24 h incubation at 37 °C under a humidified 5% CO2 to allow cell attachment, the cells in the wells were respectively treated with target compounds at various concentrations for 48 h. […] A solution of 3–(4,5-dimethylthizao1-2-y1)-2,5-diphenyltetrazolium bromide (MTT), was prepared at 5 mg/ml in phosphate buffered saline (PBS: 1.5 mM KH2PO4, 6.5 mM Na2HPO4, 137 mM NaCl, 2.7 mM KCl; pH 7.4). Of this solution 20 µl was added to each well. After incubation for 4 h at 37 °C in a humidified incubator with 5% CO2, the medium/MTT mixtures were removed, and the formazan crystals formed by the mitochondrial dehydrogenase activity of vital cells were dissolved in 100 µl of DMSO per well. The absorbance of the wells was read with a microplate reader at 570 nm. Effects of the drug cell viability were calculated using cell treated with DMSO as control.
The anti-proliferative activities were firstly evaluated against 22RV1 stimulated by 0.1 µM T or not. […] Although androst[3,2-c]pyrazoleis common in anabolic steroid, luckily these derivatives shown no androgen agonistic activity. The phenethylamino substituted compounds (7d, 8d, and 9d) and piperidine substituted compounds (7b, 8b, and 9b) were more efficient than others. […] As presented in Figure 3, 0.1 µm of T was selectedas the most adequate to induce proliferation of 22RV1 cells. […] Compound 9d caused a much more significant decrease in cell viability for all concentrations than flutamide. […]
On the technique in general: Tetrazolium dyes change colour on reduction, which living cells bring about.

Where [3] appears, read: 1 μM compound, pH 6.6, rat liver enzyme preparation, read-out: Type 1 (pH 6.6) Inh% (1 μM).
Where [4] appears, read: 1 μM compound, pH 5.5, rat liver enzyme preparation, read-out: Type 2 (pH 5.5) Inh% (1μM).
[5] abbreviates: pH 6.6, read-out: Type 1 (pH 6.6) Inh% (1 μM).
The mark [6] stands for this setting: pH 5.5, read-out: Type 2 (pH 5.5) Inh% (1μM).
The mark [7] stands for this setting: pH 6.6, rat liver enzyme preparation, read-out: Type 1 (pH 6.6) IC50.

We go through 17 molecules from PMC6735293, “Design, synthesis, and biological evaluation of novel androst-17β-amide structurally related compounds as dual 5α-reductase inhibitors and androgen receptor antagonists” (Journal of Enzyme Inhibition and Medicinal Chemistry, 2019).

As usually defined, the melting point is the temperature of the solid-liquid transition. As usually defined, the IC50 is the concentration needed to halve the response being measured.

Each structure is given as a SMILES string. Where two headings read alike, the source gives them in different places.

The molecule `C[C@]12CC[C@H]3[C@@H](CCC4=CC(=O)C(=CO)C[C@@]43C)[C@@H]1CC[C@@H]2C(=O)N1CCCCC1` [Compound 7b, 2-hydroxymethylene-17β-(piperidine-1-carbonyl)-androst-4-ene-3-one] had a melting point of 105 to 110 °C. Moreover, the inhibition at 1 µM in data set [1] (setting [3]) worked out at 52.2 ± 12.3%. Besides, the inhibition at 1 µM in data set [2] (setting [4]) is 49.9 ± 3.08%.
In data set [1], `C[C@]12Cc3c[nH]nc3C=C1CCC1C2CC[C@@]2(C)C1CC[C@@H]2C(=O)NC1CC1` (stereo partly drawn) [Compound 9e, 17β-(N-cyclopropylamino-carbonyl)-androst[3,2-c]pyrazole-4-ene] gave an IC50 of 230 ± 90 nM. Besides, the inhibition at 1 µM in data set [1] (setting [5]) worked out at 70.8 ± 9.74%; in data set [2] (setting [6]) it was 79.4 ± 2.47%.
As to `CC(C)C(=O)Nc1ccc([N+](=O)[O-])c(C(F)(F)F)c1` [flutamide, reference compound], the “Effect on cell viability of T-treated 22RV1 cells” value in the data set on 22RV1 cells was “inhibited cell proliferation in a dose-dependent manner”.
Regarding `CCN(CC)C(=O)[C@H]1CCC2C3CCC4=CC(=O)/C(=C\O)C[C@]4(C)C3CC[C@@]21C` (stereo partly drawn) [Compound 7c, 2-hydroxymethylene-17β-(N,N-diethy-carboxamide)-androst-4-ene-3-one], the melting point is 153 to 159 °C. Moreover, in data set [1] (setting [3]), the inhibition at 1 µM was found to be 27.9 ± 4.01%. Further, the inhibition at 1 µM in data set [2] (setting [4]) worked out at 24.5 ± 8.47%.
`C[C@]12Cc3c[nH]nc3C=C1CCC1C2CC[C@@]2(C)C1CC[C@@H]2C(=O)N1CCCCC1` (stereo partly drawn) [Compound 9b, 17β-(Piperidine-1-carbonyl)-androst[3,2-c]pyrazole-4-ene]: the inhibition at 1 µM turned out to be 59.2 ± 2.28% in data set [1] (setting [3]) and 49.6 ± 5.75% in data set [2] (setting [4]). The IC50 in data set [1] (setting [7]) was 630 ± 140 nM.
`C[C@]12CC[C@H]3[C@@H](CCC4=CC(=O)C(=CO)C[C@@]43C)[C@@H]1CC[C@@H]2C(=O)NC1CC1` [Compound 7e, 2-hydroxymethylene-17β-(N-cyclopropylamino-carbonyl)-androst-4-ene-3-one] displayed a melting point of 125 to 130 °C. For the same molecule, the inhibition at 1 µM in data set [1] (setting [3]) is 54.7 ± 5.94%. Also, the inhibition at 1 µM in data set [2] (setting [4]) was determined as 45.8 ± 9.86%.
The molecule `C=C1C[C@@]2(C)C(=CC1=O)CCC1C2CC[C@@]2(C)C1CC[C@@H]2C(=O)NCC(C)C` (stereo partly drawn) [Compound 8a, 2-methylene-17β-(N-isobutyl-carboxamide)-androst-4-ene-3-one] displayed a melting point of 168 to 175 °C. Moreover, in data set [1] (setting [3]), the inhibition at 1 µM was 31.1 ± 6.49%. For the same molecule, in data set [2] (setting [4]), the inhibition at 1 µM was determined as 19.9 ± 12.9%.
As for `CC(C)(C)NC(=O)[C@H]1CC[C@H]2[C@@H]3CC[C@H]4NC(=O)C=C[C@]4(C)[C@H]3CC[C@]12C` [Finasteride, finasteride, reference compound], the inhibition at 1 µM in data set [1] (setting [3]) is 73.7 ± 4.22%; in data set [2] (setting [6]), 70 ± 4.12%.
In turn, `C=C1C[C@@]2(C)C(=CC1=O)CC[C@H]1[C@@H]3CC[C@H](C(=O)NC4CC4)[C@@]3(C)CC[C@@H]12` [Compound 8e, 2-methylene-17β-(N-cyclopropylamino-carbonyl)-androst-4-ene-3-one] returned a melting point of 135 to 142 °C. The inhibition at 1 µM in data set [1] (setting [3]) was determined as 34.1 ± 10.1%. In data set [2] (setting [4]), the inhibition at 1 µM was 20.9 ± 10.1%.
For the molecule `CC(C)CNC(=O)[C@H]1CCC2C3CCC4=CC(=O)/C(=C\O)C[C@]4(C)C3CC[C@@]21C` (stereo partly drawn) [Compound 7a, 2-hydroxymethylene-17β-(N-isobutyl-carboxamide)-androst-4-ene-3-one], the melting point lay within 152 to 158 °C. The inhibition at 1 µM in data set [1] (setting [3]) is 25 ± 9.68%. In data set [2] (setting [4]), the inhibition at 1 µM came out at 24.2 ± 1.13%.
In the case of `C=C1C[C@@]2(C)C(=CC1=O)CC[C@H]1[C@@H]3CC[C@H](C(=O)N4CCCCC4)[C@@]3(C)CC[C@@H]12` [Compound 8b, 2-methylene-17β-(piperidine-1-carbonyl)-androst-4-ene-3-one], the inhibition at 1 µM in data set [1] (setting [3]) came to 35.8 ± 9.58%; in data set [2] (setting [4]), 21.2 ± 1.31%.
In turn, `COc1ccc(CCNC(=O)[C@H]2CCC3C4CCC5=CC(=O)/C(=C\O)C[C@]5(C)C4CC[C@@]32C)cc1OC` (stereo partly drawn) [Compound 7d, 2-hydroxymethylene-17β-(N-(3,4-dimethoxyphenethyl)-carboxamide)-androst-4-ene-3-one] showed a melting point of 121 to 129 °C. The IC50 in data set [1] turned out to be 580 ± 60 nM. Moreover, the inhibition at 1 µM in data set [1] (setting [5]) is 66.4 ± 4.37%. The inhibition at 1 µM in data set [2] (setting [6]) is 69 ± 9.3%.
As to `CCN(CC)C(=O)[C@H]1CCC2C3CCC4=Cc5n[nH]cc5C[C@]4(C)C3CC[C@@]21C` (stereo partly drawn) [Compound 9c, 17β-(N,N-diethy-carboxamide)-androst[3,2-c]pyrazole-4-ene], the melting point fell in the range of 111 to 118 °C. Also, in data set [1] (setting [3]), the inhibition at 1 µM worked out at 68 ± 12%. In addition, the IC50 in data set [1] (setting [7]) was found to be 520 ± 60 nM. Besides, in data set [2] (setting [4]), the inhibition at 1 µM is 63.6 ± 12.5%.
Molecule `C=C1C[C@@]2(C)C(=CC1=O)CCC1C2CC[C@@]2(C)C1CC[C@@H]2C(=O)NCCc1ccc(OC)c(OC)c1` (stereo partly drawn) [Compound 8d, 2-methylene-17β-(N-(3,4-dimethoxyphenethyl)-carboxamide)-androst-4-ene-3-one] displayed a melting point of 74 to 78 °C. The inhibition at 1 µM in data set [1] (setting [3]) stood at 24.8 ± 9.02%. Besides, the inhibition at 1 µM in data set [2] (setting [4]) was determined as 26.1 ± 10.3%.
On to `COc1ccc(CCNC(=O)[C@H]2CCC3C4CCC5=Cc6n[nH]cc6C[C@]5(C)C4CC[C@@]32C)cc1OC` (stereo partly drawn) [Compound 9d, 17β-(N-(3,4-dimethoxyphenethyl)-carboxamide)-androst[3,2-c]pyrazole-4-ene], for which the IC50 was 8850 nM in the data set with 22RV1 cells (Homo sapiens, 22Rv1, 48 h, read-out: IC50 anti-proliferative activity against 22RV1, T-stimulated group) and 90 ± 20 nM in data set [1]. Moreover, in the data set on 22RV1 cells, the “Effect on cell viability of T-treated 22RV1 cells” value is reported as “inhibited cell proliferation in a dose-dependent manner”. Besides, the inhibition at 1 µM was found to be 80.1 ± 6.73% in data set [1] (setting [5]) and 71.9 ± 3.4% in data set [2] (setting [6]).
Turning to `CC(C)CNC(=O)[C@H]1CCC2C3CCC4=Cc5n[nH]cc5C[C@]4(C)C3CC[C@@]21C` (stereo partly drawn) [Compound 9a, 17β-(N-isobutyl-carboxamide)-androst[3,2-c]pyrazole-4-ene], the inhibition at 1 µM in data set [1] (setting [3]) came out at 53.1 ± 9.71%; in data set [2] (setting [4]) it was 48.7 ± 3.08%.
The molecule `C=C1C[C@@]2(C)C(=CC1=O)CCC1C2CC[C@@]2(C)C1CC[C@@H]2C(=O)N(CC)CC` (stereo partly drawn) [Compound 8c, 2-methylene-17β-(N,N-diethy-carboxamide)-androst-4-ene-3-one] registered a melting point of 98 to 105 °C. Moreover, in data set [1] (setting [3]), the inhibition at 1 µM was 25.8 ± 4.22%. In data set [2] (setting [4]), the inhibition at 1 µM worked out at 18.3 ± 4.61%.
